Measurements published in paper PMC8536124 (International Journal of Molecular Sciences, 2021).

Experiments:
[1] = tested on: A498; assay: NCI-60 screening (SRB); type: cell-based, human; conditions: A498, five-dose; for GI50 / CC50: Homo sapiens; for CC50: read-out: LC50 (the source's name)
[2] = tested on: K-562; assay: NCI-60 screening (SRB); type: cell-based, human; conditions: for GI50 / CC50: Homo sapiens, K562, five-dose; for CC50: read-out: LC50 (the source's name); for TGI: five-dose
[3] = tested on: HCT-15; assay: NCI-60 screening (SRB); type: cell-based, human; conditions: five-dose; for GI50 / CC50: Homo sapiens; for CC50: read-out: LC50 (the source's name)
[4] = tested on: MALME-3M; assay: NCI-60 screening (SRB); type: cell-based, human; conditions: for GI50 / CC50: Homo sapiens; for GI50 / CC50 / TGI: MALME-3M, five-dose; for CC50: read-out: LC50 (the source's name)
[5] = tested on: chorioallantoic membrane; assay: Chorioallantoic membrane (CAM) angiogenesis assay; type: in vivo, chicken; conditions: 1 µM in 0.5% DMSO
Method: CAM test also allows the assessment of a drug’s activity on tumor proliferation and distant metastasis, as well as drug toxicity. […] No anomalies were noticed in the angiogenic process after treatment with 0.5% DMSO in distilled water used as control.
The basic CAM assay protocol makes use of fertilized chicken eggs, incubated at 37 °C, under controlled humidity. On the third day of incubation (embryonic day of development, EDD), a small opening was made at one end of the eggs and 5–6 mL of albumen were removed, thus facilitating the separation of the chorioallantoic membrane. On EDD 4, a window was cut on the upper side of the egg and subsequently resealed, returning the specimens to the incubator. On EDD 7 (0 h), 10 µL of each test solution were administered inside a plastic ring previously applied on the intensely vascularized surface of the CAM [93]. All compounds were tested at a concentration of 1 µM in DMSO 0.5%, which also represented the control sample. All samples were daily applied in the same volume, for 72 h. For each analyzed sample, 5 eggs were used, and all samples were applied in triplicate. Macroscopic evaluation was daily performed in ovo by means of stereomicroscopy (ZEISS SteREO Discovery.V8, Göttingen, Germany), and all images were registered and processed by Axiocam 105 color, AxioVision SE64. Rel. 4.9.1 Software, (ZEISS Göttingen, Germany), ImageJ (ImageJ Version 1.50e, https://imagej.nih.gov/ij/index.html, accessed on 3 June 2021) and GIMP software (GIMP v 2.8, https://www.gimp.org/, accessed on 3 June 2021).

[6] = tested on: A375 cells; assay: Cell morphology and confluence; type: cell-based, human; conditions: 24 h
Method: A morphological examination of the tested cells was conducted in order to provide additional data for the investigated compounds in terms of their biological activity.

[7] = tested on: NCI-H23; assay: NCI-60 screening (SRB); type: cell-based, human; conditions: five-dose; for GI50 / CC50: Homo sapiens; for CC50: read-out: LC50 (the source's name)
[8] = tested on: TK-10; assay: NCI-60 screening (SRB); type: cell-based, human; conditions: five-dose; for GI50 / CC50: Homo sapiens; for CC50: read-out: LC50 (the source's name)
[9] = tested on: SW-620; assay: NCI-60 screening (SRB); type: cell-based, human; conditions: five-dose; for GI50 / CC50: Homo sapiens; for CC50: read-out: LC50 (the source's name)
[10] = tested on: LOX IMVI; assay: NCI-60 screening (SRB); type: cell-based, human; conditions: for GI50 / CC50: Homo sapiens; for GI50 / CC50 / TGI: LOX IMVI, five-dose; for CC50: read-out: LC50 (the source's name)
[11] = tested on: SF-295; assay: NCI-60 screening (SRB); type: cell-based, human; conditions: five-dose; for GI50 / CC50: Homo sapiens; for CC50: read-out: LC50 (the source's name)
[12] = tested on: UO-31; assay: NCI-60 screening (SRB); type: cell-based, human; conditions: five-dose; for GI50 / CC50: Homo sapiens; for CC50: read-out: LC50 (the source's name)
[13] = tested on: T-47D; assay: NCI-60 screening (SRB); type: cell-based, human; conditions: five-dose; for GI50 / LC50 (concentration killing 50% of cells): Homo sapiens, T47D
[14] = tested on: SF-539; assay: NCI-60 screening (SRB); type: cell-based, human; conditions: for GI50 / CC50: Homo sapiens; for GI50 / CC50 / TGI: SF-539, five-dose; for CC50: read-out: LC50 (the source's name)
[15] = tested on: OVCAR-4; assay: NCI-60 screening (SRB); type: cell-based, human; conditions: five-dose; for GI50 / CC50: Homo sapiens; for CC50: read-out: LC50 (the source's name)
[16] = tested on: EKVX; assay: NCI-60 screening (SRB); type: cell-based, human; conditions: five-dose; for GI50 / LC50: Homo sapiens
[17] = tested on: M14; assay: NCI-60 screening (SRB); type: cell-based, human; conditions: five-dose; for GI50 / CC50: Homo sapiens; for CC50: read-out: LC50 (the source's name)
[18] = tested on: HS 578T; assay: NCI-60 screening (SRB); type: cell-based, human; conditions: five-dose; for GI50 / CC50: Homo sapiens; for CC50: read-out: LC50 (the source's name)
[19] = tested on: SR; assay: NCI-60 screening (SRB); type: cell-based, human; conditions: five-dose; for GI50 / CC50: Homo sapiens; for CC50: read-out: LC50 (the source's name)
[20] = EDD7 to EDD10, up to 72 h post-treatment

## CCN1CCN(C(=O)[C@]23CC[C@@H](C)[C@H](C)[C@H]2C2=CC[C@@H]4[C@@]5(C)CCC(=O)C(C)(C)[C@@H]5CC[C@@]4(C)[C@]2(C)CC3)CC1 [Compound 4, N-(3-oxo-ursan-12-en-28-oyl)-ethylpiperazine]
[1]
  TGI: 2.42 µM
  GI50: 0.927 µM
  CC50: 7.92 µM
[2]
  GI50: 0.98 µM
  CC50: 4.84 µM
  TGI: 2.18 µM
[3]
  GI50: 0.977 µM
  CC50: 7.41 µM
  TGI: 2.39 µM
[4]
  GI50: 0.807 µM
  CC50: 8.84 µM
  TGI: 1.51 µM
[4]; MALME-3M (Melanoma), 1 dose 10 µM
  Growth %: −85.67%
[5]; [20]
  effect on angiogenesis (CAM): no alterations were noticed in terms of angiogenesis
[6]; 0.1 μM
  cell morphology and confluence: caused cell death
[6]; 1 and 5 μM
  cell morphology and confluence: visible loss of cell confluence
[7]
  GI50: 1.08 µM
  CC50: 11.6 µM
  TGI: 2.90 µM
[8]
  GI50: 1.27 µM
  CC50: 20.3 µM
  TGI: 4.14 µM
[9]
  GI50: 0.902 µM
  CC50: 3.44 µM
  TGI: 1.76 µM
[10]
  GI50: 0.821 µM
  CC50: 2.8 µM
  TGI: 1.52 µM
[10]; LOXIMVI (Melanoma), 1 dose 10 µM
  Growth %: −85.17%
[11]
  GI50: 0.82 µM
  CC50: 3.08 µM
  TGI: 1.59 µM
[12]
  GI50: 0.726 µM
  CC50: 2.79 µM
  TGI: 1.42 µM
[13]
  GI50: 1.33 µM
  LC50 (concentration killing 50% of cells): > 50 µM
  TGI: 3.89 µM
[14]
  GI50: 0.843 µM
  CC50: 2.8 µM
  TGI: 1.54 µM
[14]; SF-539 CNS cancer, 1 dose 10 µM
  Growth %: −97.21%
[15]
  GI50: 1.26 µM
  CC50: 18 µM
  TGI: 4.74 µM
[16]
  GI50: 0.916 µM
  LC50: 8.95 µM
  TGI: 2.42 µM
[17]
  GI50: 0.794 µM
  CC50: 3.28 µM
  TGI: 1.61 µM
[18]
  GI50: 1.07 µM
  CC50: 26.5 µM
  TGI: 2.68 µM

## CCN1CCN(C(=O)[C@]23CCC(C)(C)C[C@H]2C2=CC[C@@H]4[C@@]5(C)C/C(=C/c6cccnc6)C(=O)C(C)(C)[C@@H]5CC[C@@]4(C)[C@]2(C)CC3)CC1 [Compound 6]
[1]
  TGI: 3.53 µM
  GI50: 1.66 µM
  CC50: 7.48 µM
[2]
  GI50: 0.443 µM
  CC50: > 100 µM
  TGI: 3.34 µM
[3]
  GI50: 1.08 µM
  CC50: 6.79 µM
  TGI: 2.71 µM
[4]
  GI50: 1.53 µM
  CC50: 5.54 µM
  TGI: 2.91 µM
[5]; [20]
  effect on angiogenesis (CAM): did not significantly alter the angiogenesis process
[5]; after 24 h
  effect on angiogenesis (CAM): weak antiangiogenic process
[6]; all concentrations (0.1, 1, 5 μM)
  cell morphology and confluence: noticeable decrease in cell confluence
[19]
  GI50: 0.959 µM
  CC50: > 100 µM
  TGI: 5.13 µM
[7]
  GI50: 2.1 µM
  CC50: 27.8 µM
  TGI: 5.85 µM
[8]
  GI50: 3.86 µM
  CC50: 54.1 µM
  TGI: 15.4 µM
[9]
  GI50: 1.78 µM
  CC50: 8.46 µM
  TGI: 3.88 µM
[10]
  GI50: 1.36 µM
  CC50: 5.45 µM
  TGI: 2.73 µM
[11]
  GI50: 1.66 µM
  CC50: 5.97 µM
  TGI: 3.15 µM
[12]
  GI50: 1.35 µM
  CC50: 5.32 µM
  TGI: 2.67 µM
[13]
  GI50: 2.61 µM
  LC50 (concentration killing 50% of cells): > 100 µM
  TGI: 13.7 µM
[14]
  GI50: 1.62 µM
  CC50: 5.55 µM
  TGI: 3.00 µM
[15]
  GI50: 2.17 µM
  CC50: 47.8 µM
  TGI: 7.85 µM
[16]
  GI50: 1.9 µM
  LC50: 43.5 µM
  TGI: 6.48 µM
[17]
  GI50: 1.6 µM
  CC50: 6.2 µM
  TGI: 3.15 µM
[18]
  GI50: 1.83 µM
  CC50: > 100 µM
  TGI: 5.37 µM

## CCN1CCN(C(=O)[C@]23CC[C@@H](C)[C@H](C)[C@H]2C2=CC[C@@H]4[C@@]5(C)C/C(=C/c6cccnc6)C(=O)C(C)(C)[C@@H]5CC[C@@]4(C)[C@]2(C)CC3)CC1 [Compound 9, N-(2-{3-Pyridinylidene}-3-oxoursan-12-en-28-oyl)-ethylpiperazine]
[1]
  TGI: 4.05 µM
  GI50: 1.9 µM
  CC50: 8.65 µM
[2]
  GI50: 2.08 µM
  CC50: > 100 µM
  TGI: 5.00 µM
[3]
  GI50: 1.66 µM
  CC50: 6.41 µM
  TGI: 3.26 µM
[4]
  GI50: 1.4 µM
  CC50: 5.39 µM
  TGI: 2.75 µM
[19]
  GI50: 2.18 µM
  CC50: > 100 µM
  TGI: 6.35 µM
[7]
  GI50: 2.13 µM
  CC50: 31.8 µM
  TGI: 5.91 µM
[8]
  GI50: 2.87 µM
  CC50: 59.3 µM
  TGI: 9.40 µM
[9]
  GI50: 1.9 µM
  CC50: 9.05 µM
  TGI: 4.14 µM
[10]
  GI50: 1.58 µM
  CC50: 5.91 µM
  TGI: 3.06 µM
[11]
  GI50: 1.63 µM
  CC50: 5.7 µM
  TGI: 3.05 µM
[12]
  GI50: 1.36 µM
  CC50: 5.19 µM
  TGI: 2.65 µM
[13]
  GI50: 2.79 µM
  LC50 (concentration killing 50% of cells): > 100 µM
  TGI: 13.4 µM
[14]
  GI50: 1.66 µM
  CC50: 5.58 µM
  TGI: 3.05 µM
[15]
  GI50: 2.57 µM
  CC50: 36.6 µM
  TGI: 7.36 µM
[16]
  GI50: 2.17 µM
  LC50: 61.7 µM
  TGI: 7.32 µM
[18]
  GI50: 1.91 µM
  CC50: > 100 µM
  TGI: 4.77 µM
